# Source: patent US10238631B2, “Sesquiterpene derivatives and their use in inflammation or cancer treatment” (Academia Sinica, priority 2014, dated 2019)
# Tested on: TS/A (ER+, Her2−) murine mammary cancer cells
# Experiment: MTT cell viability assay, TS/A cells
# Assay type: cell-based
# Conditions: Mus musculus, 24 h, read-out: IC50 on cell viability, TS/A (ER+, Her2−)
# Description: (§1) Normal or cancer cells (2×10^3 to 1×10^4 cells/well) were seeded in 96-well plate for overnight and treated with different compounds for 24 h to 72 h. Cells growth were determined by MTT-based colorimetric assays according to. Viability of the test cells treated with vehicle (0.5% DMSO) only was defined as 100% viable. Survival of cells after treatment with DETDs was calculated using the following formula: viable cell number (%)=OD570 (treated cell culture)/OD570 (vehicle control)×100.
# (§2) Sixty DETDs were derived from parental compound […] and tested for anti-breast cancer cell activity.
row,Structure (SMILES),IC50 [µM]
1,C=C1C(=O)OC2CC3=C[C@@H](C/C(C)=C/C(OC(=O)/C=C/c4cccc(OC(F)(F)F)c4)[C@H]12)OC3=O (stereo partly drawn) [DETD-47],> 7.5
2,C=C1C(=O)OC2CC3=C[C@@H](C/C(C)=C/[C@@H](OC(=O)Cc4coc5ccccc45)[C@H]12)OC3=O (stereo partly drawn) [DETD-59],3.5

# Tested on: MDA-MB-231 (ER−, PR−, Her2−) human breast cancer cells
# Experiment: MTT cell viability assay, MDA-MB-231 cells
# Assay type: cell-based
# Conditions: Homo sapiens, MDA-MB-231, 24 h, read-out: IC50 on cell viability, MDA-MB-231 (ER−, PR−, Her2−)
# Description: as §1, §2
row,Structure (SMILES),IC50 [µM]
1,C=C1C(=O)OC2CC3=C[C@@H](C/C(C)=C/C(OC(=O)/C=C/c4cccc(OC(F)(F)F)c4)[C@H]12)OC3=O (stereo partly drawn) [DETD-47],> 15
2,C=C1C(=O)OC2CC3=C[C@@H](C/C(C)=C/[C@@H](OC(=O)Cc4coc5ccccc45)[C@H]12)OC3=O (stereo partly drawn) [DETD-59],5.1

# Tested on: MCF-7 (ER+, Her2−) human breast cancer cells
# Experiment: MTT cell viability assay, MCF-7 cells
# Assay type: cell-based
# Conditions: MCF7, 24 h, read-out: IC50 on cell viability, MCF-7 (ER+, Her2−)
# Description: as §1, §2
row,Structure (SMILES),IC50 [µM]
1,C=C1C(=O)OC2CC3=C[C@@H](C/C(C)=C/C(OC(=O)/C=C/c4cccc(OC(F)(F)F)c4)[C@H]12)OC3=O (stereo partly drawn) [DETD-47],> 7.5
2,C=C1C(=O)OC2CC3=C[C@@H](C/C(C)=C/[C@@H](OC(=O)Cc4coc5ccccc45)[C@H]12)OC3=O (stereo partly drawn) [DETD-59],> 7.5

# Tested on: M10 normal mammary epithelial cells
# Experiment: MTT cell viability assay, M10 normal cells
# Assay type: cell-based, human
# Conditions: Homo sapiens, Epithelial cell, 24 h
# Description: as §1, §2
row,Structure (SMILES),IC50 [µM]
1,C=C1C(=O)OC2CC3=C[C@@H](C/C(C)=C/C(OC(=O)/C=C/c4cccc(OC(F)(F)F)c4)[C@H]12)OC3=O (stereo partly drawn) [DETD-47],> 7.5
2,C=C1C(=O)OC2CC3=C[C@@H](C/C(C)=C/[C@@H](OC(=O)Cc4coc5ccccc45)[C@H]12)OC3=O (stereo partly drawn) [DETD-59],> 7.5

# Tested on: B16-F10 (NRAS mutation)
# Experiment: MTT cell viability assay, B16-F10 melanoma
# Assay type: cell-based
# Conditions: Mus musculus, B16-F10, 24 h, 24 h, read-out: IC50 on cell viability, B16-F10 (NRAS mutation)
# Description: as §1
# (§3) Several genes are involved in melanoma development and pathology; specifically, mutation in V-raf murine sarcoma viral oncogene homolog B1 (B-RAF) occurs approximately 50-60% and in neuroblastoma RAS viral oncogene homolog (N-RAS) occurs about 30% of malignant melanomas. A spectrum of wild-type or mutated melanoma cell lines including B16-F10, MeWo, A375, A2058, HTB-68, and melanocyte were used to study anti-melanoma cell proliferation activity of parental phytocompound DET and newly synthesized DETDs.
row,Structure (SMILES),IC50 [µM]
1,C=C1C(=O)OC2CC3=C[C@@H](C/C(C)=C/C(OC(=O)/C=C/c4cccc(OC(F)(F)F)c4)[C@H]12)OC3=O (stereo partly drawn) [DETD-47],> 10
2,C=C1C(=O)OC2CC3=C[C@@H](C/C(C)=C/[C@@H](OC(=O)Cc4coc5ccccc45)[C@H]12)OC3=O (stereo partly drawn) [DETD-59],6.3

# Tested on: MeWo (No NRAS or BRAF mutation)
# Experiment: MTT cell viability assay, MeWo melanoma
# Assay type: cell-based, human
# Conditions: Homo sapiens, MeWo, 24 h
# Description: as §1, §3
row,Structure (SMILES),IC50 [µM]
1,C=C1C(=O)OC2CC3=C[C@@H](C/C(C)=C/C(OC(=O)/C=C/c4cccc(OC(F)(F)F)c4)[C@H]12)OC3=O (stereo partly drawn) [DETD-47],> 10
2,C=C1C(=O)OC2CC3=C[C@@H](C/C(C)=C/[C@@H](OC(=O)Cc4coc5ccccc45)[C@H]12)OC3=O (stereo partly drawn) [DETD-59],> 10

# Tested on: HTB-68 (NRAS mutation)
# Experiment: MTT cell viability assay, HTB-68 melanoma
# Assay type: cell-based, human
# Conditions: Homo sapiens, 24 h
# Description: as §1, §3
row,Structure (SMILES),IC50 [µM]
1,C=C1C(=O)OC2CC3=C[C@@H](C/C(C)=C/C(OC(=O)/C=C/c4cccc(OC(F)(F)F)c4)[C@H]12)OC3=O (stereo partly drawn) [DETD-47],> 10
2,C=C1C(=O)OC2CC3=C[C@@H](C/C(C)=C/[C@@H](OC(=O)Cc4coc5ccccc45)[C@H]12)OC3=O (stereo partly drawn) [DETD-59],4.8

# Tested on: A2058 (BRAF mutation)
# Experiment: MTT cell viability assay, A2058 melanoma
# Assay type: cell-based, human
# Conditions: Homo sapiens, A2058, 24 h
# Description: as §1, §3
row,Structure (SMILES),IC50 [µM]
1,C=C1C(=O)OC2CC3=C[C@@H](C/C(C)=C/C(OC(=O)/C=C/c4cccc(OC(F)(F)F)c4)[C@H]12)OC3=O (stereo partly drawn) [DETD-47],> 10
2,C=C1C(=O)OC2CC3=C[C@@H](C/C(C)=C/[C@@H](OC(=O)Cc4coc5ccccc45)[C@H]12)OC3=O (stereo partly drawn) [DETD-59],6

# Tested on: A375 (BRAF mutation)
# Experiment: MTT cell viability assay, A375 melanoma
# Assay type: cell-based, human
# Conditions: Homo sapiens, A-375, 24 h, 24 h, MTT; read-out: IC50 on cell viability, A375 (BRAF mutation)
# Description: as §1, §3
# To investigate whether or not DETD-35 show synergism with PLX4032 against A375 melanoma cells, we performed anti-proliferation assay using MTT reagent to obtain IC50 of each compound. […] The synergistic effect was quantified by combination index (CI) analysis as stated above.
row,Structure (SMILES),IC50 [µM]
1,C=C1C(=O)OC2CC3=C[C@@H](C/C(C)=C/C(OC(=O)/C=C/c4cccc(OC(F)(F)F)c4)[C@H]12)OC3=O (stereo partly drawn) [DETD-47],8.3
2,C=C1C(=O)OC2CC3=C[C@@H](C/C(C)=C/[C@@H](OC(=O)Cc4coc5ccccc45)[C@H]12)OC3=O (stereo partly drawn) [DETD-59],2.6

# Tested on: Melanocyte (Normal cells)
# Experiment: MTT cell viability assay, normal melanocytes
# Assay type: cell-based, human
# Conditions: Homo sapiens, Melanocyte, 24 h
# Description: as §1, §3
row,Structure (SMILES),IC50 [µM]
1,C=C1C(=O)OC2CC3=C[C@@H](C/C(C)=C/C(OC(=O)/C=C/c4cccc(OC(F)(F)F)c4)[C@H]12)OC3=O (stereo partly drawn) [DETD-47],> 10
2,C=C1C(=O)OC2CC3=C[C@@H](C/C(C)=C/[C@@H](OC(=O)Cc4coc5ccccc45)[C@H]12)OC3=O (stereo partly drawn) [DETD-59],> 10

# Tested on: RAW264.7 (normal macrophage)
# Experiment: MTT cell viability assay, RAW264.7 macrophages
# Assay type: cell-based, mouse
# Conditions: Mus musculus, RAW264.7, 24 h
# Description: as §1
# (§4) Marcophages (2×10^5 cells/well in 96-well plate) were treated with compounds for 1 h, then incubated further for 24 h with or without the presence of […] LPS in the cultural medium. Nitrite levels in cell culture medium were determined by the Griess reaction method. In parallel to the Griess assays, macrophage cell viabilities were determined using the MTT based colorimetric assay.
row,Structure (SMILES),IC50 [µM]
1,C=C1C(=O)OC2CC3=C[C@@H](C/C(C)=C/C(OC(=O)/C=C/c4cccc(OC(F)(F)F)c4)[C@H]12)OC3=O (stereo partly drawn) [DETD-47],> 10
2,C=C1C(=O)OC2CC3=C[C@@H](C/C(C)=C/[C@@H](OC(=O)Cc4coc5ccccc45)[C@H]12)OC3=O (stereo partly drawn) [DETD-59],> 10

# Tested on: LPS-induced nitric oxide (NO) production in RAW 264.7 cells
# Experiment: Nitric oxide production in LPS-stimulated macrophages (Griess)
# Assay type: cell-based, mouse
# Conditions: Mus musculus; LPS-stimulated RAW264.7, nitrite 24 h after LPS
# Description: as §4
# LPS from the outer membrane of Gram-negative bacteria can induce mRNA or protein levels of inducible nitric oxide synthase (iNOS), which catalyzes oxidative deamination of L-arginine to produce nitric oxide (NO). Once NO is predominantly produced, it interacts with superoxide anion and generates highly reactive oxidants resulting in cellular inflammation, DNA, protein and tissue damages, carcinogenesis, and antiapoptosis. We used in vitro LPS stimulated inflammation in RAW264.7 cell system to evaluate the effect of DET and its derivatives DETDs on NO production by determination of nitrite level (equivalent to NO level) in culture medium 24 h after LPS treatment.
row,Structure (SMILES),IC50 [µM]
1,C=C1C(=O)OC2CC3=C[C@@H](C/C(C)=C/C(OC(=O)/C=C/c4cccc(OC(F)(F)F)c4)[C@H]12)OC3=O (stereo partly drawn) [DETD-47],> 10
2,C=C1C(=O)OC2CC3=C[C@@H](C/C(C)=C/[C@@H](OC(=O)Cc4coc5ccccc45)[C@H]12)OC3=O (stereo partly drawn) [DETD-59],> 10
